According to publication PMC3356383, “Efficacious Intermittent Dosing of a Novel JAK2 Inhibitor in Mouse Models of Polycythemia Vera” (PLoS ONE, 2012):
Marks after values point to notes of the source that are not given here.

How the values were obtained:
[1] = test system: JAK2V617F-Luciferase expressing cells; test: Bone marrow transplant mice expressing JAK2V617F-Luciferase (PV model); type: in vivo
Experimental: Production of retrovirus containing cDNA of JAK2 V617F fused to luciferase 2 was performed as described previously as was transplantation of bone marrow cells infected with virus into irradiated mice.
Imaging of mice expressing JAK2 V617F-Luciferase was conducted as described previously.
Measurement of the level of JAK2 V617F allele in the tissues of transplanted mice was done as described previously.
Cells were stained in PBS, 0.5% BSA with antibodies for 15 min on ice. Stained cells were acquired on a 4-laser LSR-II (BD Biosciences) and data analyzed using FlowJo software (Treestar). Dead cells were labeled with the blue fluorescent LIVE/DEAD reactive dye (Invitrogen) and excluded from the analysis.

[2] = test system: peripheral blood cell populations; test: Cell populations in peripheral blood of normal mice; type: in vivo, C57BL/6 mice; conditions: 54 mpk
From the text: JAK2 and its family members JAK1 and JAK3 are known to signal downstream of cytokines that play essential roles in the development of lymphoid cell populations. To examine more thoroughly the effects of JAK2 inhibition on lymphoid cells, we analyzed wild-type (C57BL/6) mice treated with 54 mpk MRLB-11055 for 3 days, 6 days or up to 5 cycles of 3 days (“on”) followed by a 4 day holiday (“off”).
Supplementary file pone.0037207.s005.doc: Table S3 Effect of MRLB-11055 on Cell Populations in Peripheral Blood of Normal Mice. Cell counts measured by Advia. Cycles refer to 3 days of treatment followed by a 4 day holiday. *p<0.01 and **p<0.001 in Student T test when comparing vehicle with treatment. HCT, hematocrit; RBC, red blood cells; HGB, hemoglobin; WBC, white blood cells. (DOC) Click here for additional data file.

[3] = test system: lung epithelial cancer cell lines, including H2122 cells; test: Cell proliferation of several lung epithelial cancer cell lines; type: cell-based; conditions: on average
Experimental: Cell proliferation was measured by ViaLight (Lonza Group Ltd) assay as follows. Cells (1000–2000) were seeded into 384-well plates and incubated 16 hours @ 37°C, 5% CO2. […] Cells were lysed and ATP detected as per the manufacturer protocol.

[4] = test system: darbepoetin-induced polycythemia and splenomegaly; test: Darbepoetin-induced model of polycythemia; type: in vivo, C57BL/6 mice; conditions: 7 days
Experimental: C57BL/6 mice (Charles River Laboratories, Wilmington, MA) aged 4–6 weeks were dosed with MRLB-11055 in vehicle (10%v/v polysorbate 80) or with vehicle alone. All dosing was done by oral gavage (10 ml/kg body weight/day). Inhibition of darbepoetin-induced polycythemia and splenomegaly by MRLB-11055 was measured as described previously.

[5] = 2 cycles (3 days treatment, 4 day holiday)
[6] = 5 cycles (3 days treatment, 4 day holiday)

NC(=O)c1cnc(N[C@H](C2CC2)C(F)(F)F)c2c1[nH]c1cc(-c3cnc(N)nc3)ccc12 [MRLB-11055]
Reduction in spleen BLI over first 3 days of treatment ([1]; 54 mpk oral once daily for 3 days, cycle 1): ~20 fold | Spleen BLI, splenic CD71+TER119+ cells and V617F allele burden in peripheral blood ([1]; 54 mpk oral once daily, Day 3, no further benefit out to Day 7): Significant reductions in all three endpoints | Spleen weight at end of second holiday period ([1]; 54 mpk, 2 cycles): normalization in spleen weight | Hematocrit after 2 cycles ([1]; 54 mpk, 2 cycles of 3 days on, 4 days off, decreased from 53%, vehicle 53% to 56%): 42% | CD71+TER119+ cells in spleen relative to vehicle controls ([1]; 54 mpk, end of second holiday period): significant reduction | Level of pSTAT5 in spleens of JAK2V617F-Luciferase mice ([1]; 1 hour post-dose): significantly inhibited | Increase in spleen BLI over the 4 day holiday ([1]; 4 days after 3 days of 54 mpk, cycle 1): ~4 fold | Spleen BLI after holiday, fold less than pre-treatment levels ([1]; end of cycle 1 (3 days on, 4 days off), 54 mpk): about 5 fold | Baso-phils [2, 5]: 0.03 ± 0.01 * x 10^3/µl | Eosino-phils [2, 5]: 0.14 ± 0.06 x 10^3/µl | HCT [2, 5]: 51.6 ± 1.5* % | HGB [2, 5]: 13.4 ± 0.4** g/dL | Lympho-cytes [2, 5]: 6.2 ± 1.6 x 10^3/µl | Mono-cytes [2, 5]: 0.04 ± 0.01 x 10^3/µl | Neutro-phils [2, 5]: 0.78 ± 0.18 x 10^3/µl | Platelets [2, 5]: 2244 ± 85** x 10^3/µl | Platelets MPV [2, 5]: 6.9 ± 0.2** fL | RBC [2, 5]: 9.65 ± 0.27* x 10^6/µl | Retic [2, 5]: 803 ± 18** x 10^9/L | WBC [2, 5]: 7.4 ± 1.7 x 10^3/µl | Baso-phils [2, 6]: 0.04 ± 0.01 x 10^3/µl | Eosino-phils [2, 6]: 0.06 ± 0.03 * x 10^3/µl | HCT [2, 6]: 50.3 ± 0.6** % | HGB [2, 6]: 13.0 ± 0.1** g/dL | Lympho-cytes [2, 6]: 4.7 ± 1.5** x 10^3/µl | Mono-cytes [2, 6]: 0.05 ± 0.01 x 10^3/µl | Neutro-phils [2, 6]: 0.86 ± 0.34 x 10^3/µl | Platelets [2, 6]: 2376 ± 171 ** x 10^3/µl | Platelets MPV [2, 6]: 6.8 ± 0.1** fL | RBC [2, 6]: 9.41 ± 0.13** x 10^6/µl | Retic [2, 6]: 911 ± 64** x 10^9/L | WBC [2, 6]: 5.9 ± 1.9* x 10^3/µl | Baso-phils ([2]; 3 days): 0.03 ± 0.03 x 10^3/µl | Eosino-phils ([2]; 3 days): 0.26 ± 0.09 x 10^3/µl | HCT ([2]; 3 days): 50.4 ± 0.8** % | HGB ([2]; 3 days): 13.7 ± 0.2** g/dL | Lympho-cytes ([2]; 3 days): 4.2 ± 0.9** x 10^3/µl | Mono-cytes ([2]; 3 days): 0.05 ± 0.02 x 10^3/µl | Neutro-phils ([2]; 3 days): 0.61 ± 0.07 x 10^3/µl | Platelets ([2]; 3 days): 1611 ± 85** x 10^3/µl | Platelets MPV ([2]; 3 days): 6.6 ± 0.4 fL | RBC ([2]; 3 days): 9.29 ± 0.04** x 10^6/µl | Retic ([2]; 3 days): 43 ± 6** x 10^9/L | WBC ([2]; 3 days): 5.3 ± 1.0** x 10^3/µl | Baso-phils ([2]; 6 days): 0.02 ± 0.01** x 10^3/µl | Eosino-phils ([2]; 6 days): 0.19 ± 0.06 x 10^3/µl | HCT ([2]; 6 days): 48.7 ± 2.5** % | HGB ([2]; 6 days): 12.9 ± 0.5** g/dL | Lympho-cytes ([2]; 6 days): 3.5 ± 0.4** x 10^3/µl | Mono-cytes ([2]; 6 days): 0.05 ± 0.02 x 10^3/µl | Neutro-phils ([2]; 6 days): 0.60 ± 0.16 x 10^3/µl | Platelets ([2]; 6 days): 2534 ± 88** x 10^3/µl | Platelets MPV ([2]; 6 days): 6.1 ± 0.2** fL | RBC ([2]; 6 days): 8.80 ± 0.39** x 10^6/µl | Retic ([2]; 6 days): 162 ± 24** x 10^9/L | WBC ([2]; 6 days): 4.6 ± 0.6** x 10^3/µl | Proliferation IC50 of lung epithelial cancer cell lines, fold higher than for JAK2-dependent cell lines [3]: 50–70 fold | Effect on WBC ([4]; 5, 15, 25 and 40 mpk once daily): dose-dependent trend towards WBC reduction, that did not reach statistical significance | Efficacy, prevention of elevated hematocrit (Hct) ([4]; 40 mpk orally once daily): 76% | Efficacy, prevention of elevated spleen weight (SPL) ([4]; 40 mpk orally once daily): 87%
